Results published in ChEMBL document CHEMBL1201862, “PubChem BioAssay data set” (2004).
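Protocol summary: plate cells (96-well), add compound at 5 concentrations, incubate 48 h, interpolate endpoints linearly. GI50 marks 50% less growth.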 Active and inactive are the calls of the source. No stated cut-off is given here; in the data, active = GI50 up to about 1.1 µM and inactive = higher.

Tests used:
Experiment in all cases: NCI tumour cell line growth inhibition, 48 h
A549 = tested on: A549
SN12C = tested on: SN12C
SR = tested on: SR
HOP-92 = tested on: HOP-92
HOP-62 = tested on: HOP-62
A498 = tested on: A498
SW-620 = tested on: SW-620
COLO 205 = tested on: COLO 205
HCC 2998 = tested on: HCC 2998
KM-20L2 = tested on: KM-20L2
IGROV-1 = tested on: IGROV-1
RXF 393 = tested on: RXF 393
RPMI-8226 = tested on: RPMI-8226
NCI-H226 = tested on: NCI-H226
CCRF-CEM = tested on: CCRF-CEM
SNB-19 = tested on: SNB-19
OVCAR-5 = tested on: OVCAR-5
BT-549 = tested on: BT-549
LOX IMVI = tested on: LOX IMVI
NCI-H460 = tested on: NCI-H460

CN(C)CCNC(=O)c1cccc2nc3c4ccccc4c4ccccc4c3nc12
GI50 (A549): 2.74 µM (inactive) | GI50 (SN12C): 1.92 µM (inactive) | GI50 (SR): 0.773 µM (active) | GI50 (HOP-92): 7.82 µM (inactive) | GI50 (HOP-62): 16.2 µM (inactive) | GI50 (A498): 7 µM (inactive) | GI50 (SW-620): 1.58 µM (inactive) | GI50 (COLO 205): 3.89 µM (inactive) | GI50 (HCC 2998): 5.27 µM (inactive) | GI50 (KM-20L2): 3.8 µM (inactive) | GI50 (IGROV-1): 3.38 µM (inactive) | GI50 (RXF 393): 2.06 µM (inactive) | GI50 (RPMI-8226): 1.56 µM (inactive) | GI50 (NCI-H226): 9.86 µM (inactive) | GI50 (CCRF-CEM): 1.13 µM (inactive) | GI50 (SNB-19): 3.48 µM (inactive) | GI50 (OVCAR-5): 7.67 µM (inactive) | GI50 (BT-549): 2.65 µM (inactive) | GI50 (LOX IMVI): 1.64 µM (inactive) | GI50 (NCI-H460): 0.875 µM (active)
